Measurements: PMC4848510, “Foldamer-mediated manipulation of a pre-amyloid toxin” (Nature Communications, 2016)

How the values were obtained:
IAPP = target: T1, IAPP (Homo sapiens, UniProt P10997); test: LUV-catalysed IAPP fibre formation kinetic assay (ThT fluorescence); type: biochemical; conditions: 10 μM IAPP, 1:1 IAPP:small molecule, 630 μM LUVs DOPG:DOPC 1:1; ND = no kinetics over time of observation
T1 construct: IAPP is a 37-residue peptide co-packaged with insulin in pancreatic β-cells; purchased Genscript; Elim Biopharmaceuticals
T1 sequence (P10997 34-70 limits assumed): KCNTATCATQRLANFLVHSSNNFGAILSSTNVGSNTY
Description: Unless otherwise stated, LUVs used in this work were prepared from a 1:1 mixture of DOPG/DOPC. The lyophilized mixture was hydrated in 100 mM KCl, 50 mM sodium phosphate and pH 7.4 for 20 min. A 20mg ml^−1 solution of lipid in buffer was passed 21 times through a polycarbonate membrane (pore diameter=100 nm). The phospholipid content of the final material was measured using a total phosphorous assay.
(§1) Amyloid reactions were conducted in buffer containing liposome (630 μM lipid) and 20 μM ThT in a black 96-well plate. This was followed by the addition of small molecule dissolved in dimethylsulphoxide (DMSO; final DMSO concentration=0.5%, v/v). Fibre formation was initiated by the addition of IAPP stock solution. The final volume in each well was 200 μl. Kinetics of fibrillation was monitored by ThT fluorescence (excitation 450 nm and emission 485 nm), using a FluoDia T70 fluorescence plate reader (Photon Technology International, Edison, NJ, USA). The data were blank subtracted and renormalized to the maximum intensity of reactions containing only IAPP. Each kinetic trace was fit to a sigmoidal form:
(§2) where I is the fluorescence intensity, t is time, and b, m and τ are dependent fitting variables. All samples were run at least in triplicate and error bars shown in the text represent ±1 s.d.

INS-1 cells = test: Rescue of INS-1 cells from IAPP-induced toxicity (CellTiter Blue); conditions: 13 μM IAPP; for rescue of IAPP-induced toxicity, co-addition: small molecule co-added 1:1, 48 h, n=24
[1] = tested on: Src and its homologue, Abl; conditions: cited from earlier work
Description: Dynamic binding modes, such as conformational selection, are often observed in protein:ligand interactions. A recent example is the anti-cancer drug Gleevec[8]. Gleevec binds to structurally identical sites in Src and its homologue, Abl. […] It stands to reason that the internal degrees of freedom of ligands should be similarly exploitable. However, ligand dynamics are viewed unfavourably as a result of entropy loss on binding. The non-covalent and reversible stabili ...

[2] = IAPP fibre formation in solution without LUVs (ThT); type: physicochemical, human; conditions: 10 μM IAPP, no LUVs, at least triplicate, ±1 s.d.
Description: as §1, with “form: […]” for “form:”
as §2
Supplementary Figure 1: Kinetic profiles of IAPP self-assembly. a, Three representative kinetic profiles for a standard reaction of 10 µM IAPP catalysed by the presence of 630 µM LUVs (DOPG:DOPC, 1:1, 100 nm) (inset) A representative sigmoid fit (magenta) used to extract reaction midpoints, t50. b, Representative comparison of the kinetic profiles of (10 µM) IAPP fibrillation in the absence (black) and presence (red) of 630 µM LUVs. […]

Row | Molecule | t50 / (t50 IAPP only), inhibition of LUV-catalysed fibre formation (IAPP) | rescue of IAPP-induced toxicity, co-addition (INS-1 cells) | difference in binding affinity between Src and Abl [1] | reaction midpoint t50 of IAPP assembly into fibres in solution [2] [h] | decrease of INS-1 viability (INS-1 cells; 48 h incubation) [%]
1 | O=C(O[C@@H]1Cc2c(O)cc(O)cc2O[C@@H]1c1cc(O)c(O)c(O)c1)c1cc(O)c(O)c(O)c1 [EGCG, epigallocatechin gallate] | no detectable effect | ineffective in rescuing toxicity |  |  | 
2 | Cc1ccc(NC(=O)c2ccc(CN3CCN(C)CC3)cc2)cc1Nc1nccc(-c2cccnc2)n1 [Gleevec] |  |  | > 1,000 fold |  | 
3 | CC[C@H](C)[C@H](NC(=O)[C@H](C)NC(=O)CNC(=O)[C@H](Cc1ccccc1)NC(=O)[C@H](CC(N)=O)NC(=O)[C@H](CC(N)=O)NC(=O)[C@H](CO)NC(=O)[C@H](CO)NC(=O)[C@H](Cc1c[nH]cn1)NC(=O)[C@@H](NC(=O)[C@H](CC(C)C)NC(=O)[C@H](Cc1ccccc1)NC(=O)[C@H](CC(N)=O)NC(=O)[C@H](C)NC(=O)[C@H](CC(C)C)NC(=O)[C@H](CCCNC(=N)N)NC(=O)[C@H](CCC(N)=O)NC(=O)[C@@H](NC(=O)[C@H](C)NC(=O)[C@@H]1CSSC[C@H](NC(=O)[C@@H](N)CCCCN)C(=O)N[C@@H](CC(N)=O)C(=O)N[C@@H]([C@@H](C)O)C(=O)N[C@@H](C)C(=O)N[C@@H]([C@@H](C)O)C(=O)N1)[C@@H](C)O)C(C)C)C(=O)N[C@@H](CC(C)C)C(=O)N[C@@H](CO)C(=O)N[C@@H](CO)C(=O)N[C@H](C(=O)N[C@@H](CC(N)=O)C(=O)N[C@H](C(=O)NCC(=O)N[C@@H](CO)C(=O)N[C@@H](CC(N)=O)C(=O)N[C@H](C(=O)N[C@@H](Cc1ccc(O)cc1)C(N)=O)[C@@H](C)O)C(C)C)[C@@H](C)O [IAPP] |  |  |  | 18 ± 1.4 | 78±8

More lines, main results first:

Row | t50 / (t50 IAPP only), inhibition of LUV-catalysed fibre formation (IAPP) | Molecule | rescue of IAPP-induced toxicity, co-addition (INS-1 cells) | difference in binding affinity between Src and Abl [1] | reaction midpoint t50 of IAPP assembly into fibres in solution [2] [h] | decrease of INS-1 viability (INS-1 cells; 48 h incubation) [%]
4 | no detectable effect | Oc1ccc(/C=C/c2cc(O)cc(O)c2)cc1 [resveratrol] | ineffective in rescuing toxicity |  |  | 
5 | no detectable effect | acid fuchsin | ineffective in rescuing toxicity |  |  | 
